Data on one compound can be found in publication PMC11881559 (Antimicrobial Agents and Chemotherapy, 2025).

For data set [1] the following is noted: dogs; preclinical animal studies; cited from earlier work.
Data set [2] relates to CYP3A. The following applies: in vitro CYP reaction phenotyping, preclinical; cited from earlier work.
A short description of data set [3]: Food-effect study, plasma PK. The following applies: for AUC0-t / AUC0-∞ / Cmax / MRT0-∞: mean (%CV); for t1/2: mean ± SD.

As to `O=C(NC1CCCC1)C(=O)[C@H](C[C@@H]1CCNC1=O)NC(=O)[C@@H]1[C@H]2CCC[C@H]2CN1C(=O)[C@@H](NC(=O)C(F)(F)F)C1CCCCC1` [RAY1216, leritrelvir], the “no-observed-adverse-effect level (NOAEL)” value in data set [1] is 600 mg/kg/day. The primary metabolizing enzyme result in data set [2] is reported as “CYP3A is the primary metabolizing enzyme”. In data set [3] (500 mg alongside 100 mg ritonavir, fasting), the Tmax is given as 2.5 h. Moreover, the Tmax in data set [3] (500 mg alongside 100 mg ritonavir, high-fat food) was 3.0 h. Moreover, in data set [3] (800 mg, Fast), the AUC0-t is on record as 22,700 (38.9) ng·h/mL, the “AUC0-∞” value is on record as 23,000 (38.9) ng·h/mL, the Cmax is reported as 4,760 (31.6) ng/mL and the “MRT0-∞” value was 7.01 (26.4) h. The t1/2 in data set [3] (800 mg, Fast) was determined as 7.72 ± 4.46 h. Further, the Tmax in data set [3] (800 mg, Fast, median (range)) was 1.5 (0.5, 3.0) h. For the same compound, in data set [3] (800 mg, Fed), the AUC0-t is listed as 34,100 (28) ng·h/mL, the “AUC0-∞” value is 34,200 (27.9) ng·h/mL, the Cmax is 8,510 (27.6) ng/mL and the “MRT0-∞” value is recorded as 5.96 (22.2) h. Further, the t1/2 in data set [3] (800 mg, Fed) was found to be 7.08 ± 3.61 h. The Tmax in data set [3] (800 mg, Fed, median (range)) is recorded as 3.0 (1.0, 6.0) h. Further, the “Tmax delayed by” value in data set [3] (800 mg, feeding vs fasting condition) is 1.5 h.
